Values quoted from earlier work in patent US20160346171A1, “ORAL COMPOSITION AND CONFECTION” (TEIKYO UNIVERSITY, priority 2015, published 2016).
Read-outs that look alike come from different tables or passages of the source.

What was measured:
Candida [1] = settings: for concentration inhibiting in vitro Candida mycelial growth by 95%: each independently, JP 2013-40156 A
Candida [2] = settings: mouse

SMILES	concentration inhibiting in vitro Candida mycelial growth by 50% (Candida [1]; Inoue S. et al. 2012)	concentration inhibiting in vitro Candida mycelial growth by 95% (Candida [1])	tongue symptoms (Candida [2]; 1% (=10 mg/mL) solution, three times (50 μL at a time), JP 2013-40156 A)	tongue symptoms (Candida [2]; 19.5 mg/mL solution, three times (50 μL at a time) into the oral cavity, Taguchi Y. et al. 2011)
CCCCCCCCCC(=O)O [decanoic acid]	≥ 3.13 µg/mL	at least 3.13 μg/mL	ameliorated the tongue symptoms	
CC(C)=CCC/C(C)=C/CO [geraniol]		at least 25 μg/mL		
C=CCc1ccc(O)c(OC)c1 [eugenol]		at least 200 μg/mL		
CC(C)=CCCC(C)=CC=O [citral]		at least 50 μg/mL		
O=CC=Cc1ccccc1 [cinnamaldehyde]				ameliorated the tongue symptoms
